The values below come from patent US11370743B2, “Prodrug derivatives of protein kinase C modulators” (priority 2017, dated 2022).

One series deals with C57/bl6 mice. Description: In vivo C57/bl6 Mouse CD69 Stimulation Assay. Conditions: for CD69 expression versus parent compound: 60 μg dose; for stimulation of CD69 in splenocytes: 24 h post-injection; for bolus toxicity: highest dosage. As for the experimental part:
In vivo C57/bl6 Mouse CD69 Stimulation Assay: C57/bl6 mice were obtained from the UCLA Department of Radiation Oncology. Prodrugs of the disclosure were administered intravenously via retro-orbital injection. At 24 h post-injection, mice were sacrificed and the spleens isolated. Spleens were disaggregated by forcing tissue through a steel mesh and then filtered through a 40 μm filter to produce a single-cell suspension. These cells were then stained for flow cytometry to analyze surface expression of relevant markers. Cells were first suspended in 50 μL of a 1:1 mix of 1× PBS and human AB serum (Sigma) and then stained with a combination of anti-mouse CD3-fluorescein isothiocyanate (eBioscience), CD69-phycoerythrin (eBioscience), and CD4-peridinin chlorophyll protein (eBioscience). Following antibody addition, the mixture was incubated at 4° C. for 15 min. The cells were then washed, resuspended in 1× PBS containing 2% paraformaldehyde, and stored at 4° C. Fixed cells were analyzed using an LSRFortessa (BD Biosciences). The resultant list mode files were processed using FlowJo software (version 7.6).

For another series, the target named is T1, Novel PKCδ (Homo sapiens, UniProt Q05655).
T1 construct: a specific full-length PKC isoform was combined with Tris-HCl, KCl, CaCl2
T1 sequence (Q05655 whole entry, canonical isoform): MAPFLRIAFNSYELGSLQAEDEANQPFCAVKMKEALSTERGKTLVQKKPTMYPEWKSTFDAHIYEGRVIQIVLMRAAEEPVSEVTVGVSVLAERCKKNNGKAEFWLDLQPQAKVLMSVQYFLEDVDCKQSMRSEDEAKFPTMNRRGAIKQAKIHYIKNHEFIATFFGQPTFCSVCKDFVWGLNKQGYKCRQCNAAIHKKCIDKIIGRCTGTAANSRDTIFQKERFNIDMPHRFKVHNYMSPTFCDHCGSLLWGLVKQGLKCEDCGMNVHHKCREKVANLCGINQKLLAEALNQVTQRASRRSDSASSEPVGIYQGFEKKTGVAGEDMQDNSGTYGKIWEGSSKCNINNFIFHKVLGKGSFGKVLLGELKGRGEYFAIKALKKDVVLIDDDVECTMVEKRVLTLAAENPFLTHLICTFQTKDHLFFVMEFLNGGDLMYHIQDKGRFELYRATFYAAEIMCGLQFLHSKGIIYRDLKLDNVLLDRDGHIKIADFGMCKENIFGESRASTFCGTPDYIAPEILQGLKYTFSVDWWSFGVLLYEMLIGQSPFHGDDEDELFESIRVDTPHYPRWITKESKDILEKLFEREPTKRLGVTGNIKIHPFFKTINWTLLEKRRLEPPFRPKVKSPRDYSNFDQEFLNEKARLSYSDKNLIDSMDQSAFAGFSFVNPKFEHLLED
Description: PKC binding affinity, competitive radioligand assay against 3H-PDBu. As for the experimental part: (§1) Testing of Compounds for PKC Binding Affinity: A heterogeneous competitive radioligand assay against ^3H-phorbol-12,13-dibutyrate (^3H-PDBu) was used to generate PKC binding constant (Ki) values. In a typical assay, a specific full-length PKC isoform was combined with Tris-HCl, KCl, CaCl2, bovine serum albumin, water, and phosphatidyl serine. Serial dilutions of the respective analog were added to the PKC mixture; in addition, a solution of a compound with known PKC binding affinity and a solution containing no sample were added for reference.
(§2) After addition of [^3H]PDBu, these samples were incubated, filtered through filters previously wetted with polyethyleneimine and the filters were washed with Tris buffer. The filters were then placed into scintillation vials which were then filled with Bio-Safe scintillation fluid and were measured for radioactivity using a Beckman LS 6000SC scintillation counter. Counts per minute (cpm) were averaged for each triplicate dilution. The data was then plotted (cpm vs. log(concentration)) using Prism® by GraphPad Software and an IC50 was determined using that program's built-in one-site competition least squares regression function. Ki values were calculated by the equation: Ki=IC50/(1+[^3H-PDBu])/KD of ^3H-PDBu).

Another series concerns porcine liver esterase. Put plainly: Porcine Liver Esterase Assay. It counts as in vitro ADME. The conditions noted are these: pig; 60 units of porcine liver esterase, HEPES buffered saline, pH 7.4, 10% DMSO, 37° C.; read-out: Esterase stability (t1/2)* (converted). As for the experimental part:
(§3) Hydrolytic Stability Assay: A solution of 400 μM of parent compound or prodrug derivative with 2,4,6-trimethylphenol (800 μM, 107 μg) in HEPES buffered saline, pH 7.4, with 10% DMSO (total volume 1000 μL) was incubated at 37° C. At appropriate time points, 100 μL was removed, flash frozen, and lyophilized. The lyophilized material was then diluted with 100 μL acetonitrile, filtered, and analyzed by analytical HPLC. The degree of degradation was calculated relative to the area under the curve of the compound of interest compared to the internal standard, 2,4,6-trimethylphenol, as shown in Table 1. Porcine Liver Esterase Assay: A solution of 400 μM of parent compound or prodrug derivative with 2,4,6-trimethylphenol (800 μM, 160 μg) and 60 units of porcine liver esterase in HEPES buffered saline, pH 7.4, with 10% DMSO (total volume 1500 μL) was incubated at 37° C. At appropriate time points, 150 μL was removed, flash frozen, and centrifuged at 10,000 rpm. 140 μL of the supernatant was removed and lyophilized. The lyophilized material was then diluted with 100 μL acetonitrile, filtered, and analyzed by analytical HPLC. The degree of esterase cleavage was calculated relative to the area under the curve of the compound of interest compared to the internal standard, 2,4,6-trimethylphenol.

Series [1] in a line: Hydrolytic Stability Assay. Type of series: physicochemical. Conditions: buffer, HEPES buffered saline, pH 7.4, 10% DMSO, 37° C.; for half-life at 400 μM: read-out: Hydrolytic stability (t1/2); for half-life: read-out: Hydrolytic stability (t1/2) (converted). On the procedure:
as §3

In a further series the target is T2, Conventional PKCβI (Homo sapiens, UniProt P05771).
T2 construct: a specific full-length PKC isoform was combined with Tris-HCl, KCl, CaCl2
T2 sequence (P05771 whole entry, canonical isoform): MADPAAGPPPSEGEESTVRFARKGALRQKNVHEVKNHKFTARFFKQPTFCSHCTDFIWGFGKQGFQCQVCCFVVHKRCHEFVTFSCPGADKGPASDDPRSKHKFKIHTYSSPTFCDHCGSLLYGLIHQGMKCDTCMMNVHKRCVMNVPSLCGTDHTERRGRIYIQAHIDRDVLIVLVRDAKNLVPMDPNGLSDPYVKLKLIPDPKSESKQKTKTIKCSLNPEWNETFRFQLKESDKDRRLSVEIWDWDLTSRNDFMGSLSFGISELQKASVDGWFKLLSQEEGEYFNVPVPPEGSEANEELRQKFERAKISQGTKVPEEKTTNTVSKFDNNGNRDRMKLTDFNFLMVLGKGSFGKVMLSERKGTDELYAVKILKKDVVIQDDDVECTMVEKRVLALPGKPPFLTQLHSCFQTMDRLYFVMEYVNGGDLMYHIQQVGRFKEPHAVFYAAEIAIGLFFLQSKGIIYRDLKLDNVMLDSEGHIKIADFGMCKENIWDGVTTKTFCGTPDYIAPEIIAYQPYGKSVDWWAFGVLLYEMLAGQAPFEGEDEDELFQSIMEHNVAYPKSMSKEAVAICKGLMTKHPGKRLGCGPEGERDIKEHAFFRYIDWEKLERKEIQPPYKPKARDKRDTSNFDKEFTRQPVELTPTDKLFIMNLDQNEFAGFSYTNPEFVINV
Put plainly: PKC binding affinity, competitive radioligand assay against 3H-PDBu. On the procedure:
as §1, §2

In series [2] the test system is T-lymphoblastoid CEM-SS and C-8166 cells. Conditions: CEM-SS and C-8166 cell lines; cited from earlier work.
For the next series, the target named is T3, PKC.
T3 construct: rows headed: KD of 3H-PDBu
Put plainly: Saturation binding of 3H-PDBu. The conditions noted are these: batch-to-batch variability.

The mark [3] stands for this setting: intravenous retro-orbital injection.
[4] abbreviates: vs 3H-PDBu, read-out: PKC binding affinity, Ki, Novel PKCδ.

Read-outs that look alike come from different tables or passages of the source.

Consider `CC1=C[C@H]2[C@@]3(O)[C@H](C)C[C@]4(OC(=O)CC56CC7CC(CC(C7)C5)C6)[C@H]([C@@H]3C=C(CO)C[C@]2(O)C1=O)C4(C)C` [Compound 3, adamantyl prostratin], for which the survival of mice entry in the series on C57/bl6 mice (setting [3]) is “one mouse casualty at 60 pg and no survival beyond that dose”. For the same compound, the “potency compared with prostratin” value with C57/bl6 mice (intravenous retro-orbital injection, 24 h) was “higher potency than prostratin”.
One may read the Ki as the equilibrium dissociation constant of an inhibitor or competing ligand from its target. Take `CC(=O)OCC1=C[C@H]2[C@@H]3C(C)(C)[C@]3(OC(=O)CC34CC5CC(CC(C5)C3)C4)C[C@@H](C)[C@]2(O)[C@@H]2C=C(C)C(=O)[C@@]2(O)C1` [Compound 4a]: the Ki at Novel PKCδ is 9400 nM. In the series with C57/bl6 mice, the “CD69 expression versus parent compound” value is reported as “more moderate levels of activation”, the “stimulation of CD69 in splenocytes” value is “strong stimulation of CD69 in splenocytes” and the bolus toxicity result is reported as “no bolus toxicity on mice even at the highest dosage”. Also, in the series with C57/bl6 mice (setting [3]), the survival of mice entry is given as “survived”. Moreover, the half-life at 400 μM in the series on porcine liver esterase was 27 ± 3 h. In series [1], the half-life at 400 μM is greater than 168 h.
In the case of `CCCCCC(=O)OCC1=C[C@H]2[C@@H]3C(C)(C)[C@]3(OC(=O)CC34CC5CC(CC(C5)C3)C4)C[C@@H](C)[C@]2(O)[C@@H]2C=C(C)C(=O)[C@@]2(O)C1` [Compound 4b], the Ki on Conventional PKCβI and on Novel PKCδ was greater than 2500 nM in each case. The half-life at 400 μM in the series with porcine liver esterase is 2.4 ± 0.5 h; in series [1], greater than 1780 h.
On to `CCCCCCCCCC(=O)OCC1=C[C@H]2[C@@H]3C(C)(C)[C@]3(OC(=O)CC34CC5CC(CC(C5)C3)C4)C[C@@H](C)[C@]2(O)[C@@H]2C=C(C)C(=O)[C@@]2(O)C1` [Compound 4c], for which, on Novel PKCδ, the affinity corresponds to a Ki of 9000 nM. Moreover, in the series on C57/bl6 mice, the “CD69 expression versus parent compound” value is on record as “comparable”, the “stimulation of CD69 in splenocytes” value is “strong stimulation of CD69 in splenocytes” and the bolus toxicity entry is given as “no bolus toxicity on mice even at the highest dosage”. Besides, the survival of mice result in the series with C57/bl6 mice (setting [3]) is “survived”. The half-life at 400 μM in the series on porcine liver esterase is 19 ± 2 h. Moreover, the half-life at 400 μM in series [1] is greater than 168 h.
On to `CC1=C[C@H]2[C@@]3(O)[C@H](C)C[C@]4(OC(=O)CC56CC7CC(CC(C7)C5)C6)[C@H]([C@@H]3C=C(COC(=O)c3ccccc3)C[C@]2(O)C1=O)C4(C)C` [Compound 4d], for which the Ki on Conventional PKCβI was greater than 500 nM; at Novel PKCδ it was greater than 2500 nM. The half-life at 400 μM in the series on porcine liver esterase is 32 ± 9 h; in series [1], greater than 168 h.
`CCOC(=O)OCC1=C[C@H]2[C@@H]3C(C)(C)[C@]3(OC(=O)CC34CC5CC(CC(C5)C3)C4)C[C@@H](C)[C@]2(O)[C@@H]2C=C(C)C(=O)[C@@]2(O)C1` [Compound 4e] yielded a Ki at Novel PKCδ of 380 nM. The half-life at 400 μM was 4.8 ± 0.6 h in the series with porcine liver esterase and greater than 168 h in series [1].
As to `CCCCCCCCNC(=O)OCC1=C[C@H]2[C@@H]3C(C)(C)[C@]3(OC(=O)CC34CC5CC(CC(C5)C3)C4)C[C@@H](C)[C@]2(O)[C@@H]2C=C(C)C(=O)[C@@]2(O)C1` [Compound 4f], on Novel PKCδ, the Ki stood at 2900 nM. The half-life at 400 μM in the series with porcine liver esterase was 71 ± 13 h; in series [1], greater than 168 h.
Consider `CC1=C[C@]23C(=O)[C@@H](C=C(CO)[C@@H](O)[C@]2(O)[C@H]1OC(=O)c1ccc(Br)cc1C)[C@H]1[C@@H](C[C@H]3C)C1(C)C` [Compound 6, o-methyl-p-bromo-benzoate ingenol ester], for which the Ki on Conventional PKCβI (vs 3H-PDBu, read-out: PKC binding affinity, Ki, Conventional PKCβI) came to 0.85 nM; on Novel PKCδ (setting [4]), 1.1 nM. The half-life in the series with porcine liver esterase is 1 h; in series [1], 18 h.
For the compound `CCCCCCCCCC(=O)OCC1=C[C@@H]2C(=O)[C@]3(C=C(C)[C@H](OC(=O)c4ccc(Br)cc4C)[C@@]3(O)[C@@H]1O)[C@H](C)C[C@@H]1[C@H]2C1(C)C` [Compound 7], the Ki on Novel PKCδ (setting [4]) was 11000 nM. For the same compound, the half-life (in the series on porcine liver esterase; in series [1]) was 2 h each time.
`CC(=O)O[C@@]12C[C@@H](C)[C@@]3(O)[C@@H](C=C(CO)C[C@]4(O)C(=O)C(C)=C[C@@H]34)[C@@H]1C2(C)C` [prostratin]: in series [2], the “concentration restoring cell viability to the level of uninfected controls” value is “approximately 1 μM” and the “no sign of cytotoxicity up to” value was “about 25 μM”.
In general, Kd refers to a measure of binding affinity in units of concentration. A low value points to a tighter complex. As for ^3H-phorbol-12,13-dibutyrate [^3H-PDBu], the Kd at PKC was in the range of 1.55 to 4.4 nM.
